Where two headings read alike, the source gives them in different places.
Columns and labels:
[1] = tested on: pERK in nontransfected HEK293 cells; assay: ERK phosphorylation in nontransfected, knockout and antagonist-cotreated HEK293 cells; assay type: cell-based, human
Experimental: Cells were serum-starved for 75 min and treated with ligands in 1 mL of fresh DMEM in the absence of serum as described in the figure legends. Cells were washed three times with ice-cold phosphate-buffered saline, lysed on ice in Radio-Immunoprecipitation Assay buffer, centrifuged to clarify the supernatant, normalized to protein concentration, and boiled in Laemmli sample buffer. Following sodium dodecyl sulfate–polyacrylamide gel electrophoresis, gels were transferred, blocked in 5% BSA and incubated with 1:1000 rabbit phospho-ERK1/2 (#9101, Cell Signaling Technology, Danvers, MA) and imaged with enhanced chemiluminescence (ECL). Blots were stripped and reprobed with rabbit ERK1/2 (#9102, Cell Signaling Technology) antibody and imaged with ECL to assess protein loading.

[2] = biological target: T1, D1-dopamine receptors (Homo sapiens, UniProt P21728); assay: Eurofins Cerep radioligand binding screen; settings: 10 μM
T1 construct: Eurofins Cerep; host or cells: cell membrane homogenates
Experimental: (§1) The compounds were screened at each target once, in duplicate, at 100 nM and 10 μM. […] The assay was valid if the reliability criteria, K i or IC50 values within 1/2 Log of historical values, were met. Radioligand binding assay methods were as previously described with only minor modifications , (see table in Supplementary Figure S4 for radioligands, protein sources, and assay test conditions). Briefly, cell membrane homogenates were incubated with either an antagonist or agonist radioligand in the absence or presence of the test compound in a buffer. A specific unlabeled agonist or antagonist at the target determined nonspecific binding. Following incubation, the samples were filtered rapidly under vacuum through glass fiber filters presoaked in a buffer and rinsed several times with an ice-cold buffer using a 48-sample or 96-sample cell harvester. Using a scintillation cocktail, the filters were counted for radioactivity in a scintillation counter. Compound binding was calculated as a percent inhibition of the binding of the radioactively labeled ligand specific for each target. Preparatory methods for enzyme inhibition assays were similar to radioligand binding assays. These assays involved using a known substrate, stimulus, and/or tracer, and detection methods included LANCE, fluorimetry, photometry, luminescence, or scintillation counting (see table in Supplementary Figure S4). Results of the screening assays showing an inhibition or stimulation higher than 50% were designated “hits” and considered to represent significant effects of the test compounds.

[3] = biological target: T2, D2-dopamine receptors (Homo sapiens, UniProt P14416); assay: Eurofins Cerep radioligand binding screen; settings: 10 μM
T2 construct: Eurofins Cerep; host or cells: cell membrane homogenates
Experimental: as §1

[4] = tested on: L-type Ca2+ channels; assay: Eurofins Cerep radioligand binding screen; settings: rat cerebral cortex; Figure S6
Experimental: as §1

[5] = biological target: T3, hERG potassium channels (Homo sapiens, UniProt Q12809); assay: Eurofins Cerep radioligand binding screen; settings: 10 μM
T3 construct: Eurofins Cerep; host or cells: cell membrane homogenates
Experimental: as §1

[6] = biological target: T4, serotonin transporter (Homo sapiens, UniProt P31645); assay: Eurofins Cerep radioligand binding screen; settings: 10 μM
T4 construct: Eurofins Cerep; host or cells: cell membrane homogenates
Experimental: as §1

[7] = biological target: T5, α2AR (Homo sapiens, UniProt P08913)
T5 sequence (P08913 1-465): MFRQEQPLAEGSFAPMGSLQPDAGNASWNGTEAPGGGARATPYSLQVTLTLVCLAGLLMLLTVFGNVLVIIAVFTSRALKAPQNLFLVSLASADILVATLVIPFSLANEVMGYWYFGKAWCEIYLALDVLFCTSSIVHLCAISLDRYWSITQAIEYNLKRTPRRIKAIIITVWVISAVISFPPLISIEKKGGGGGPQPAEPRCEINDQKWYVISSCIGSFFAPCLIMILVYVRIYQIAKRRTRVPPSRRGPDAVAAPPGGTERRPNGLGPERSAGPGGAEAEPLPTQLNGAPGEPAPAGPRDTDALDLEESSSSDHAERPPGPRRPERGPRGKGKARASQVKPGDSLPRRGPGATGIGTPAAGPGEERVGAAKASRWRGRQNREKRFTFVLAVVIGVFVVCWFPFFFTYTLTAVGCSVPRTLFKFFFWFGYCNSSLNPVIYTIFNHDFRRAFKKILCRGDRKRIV

[8] = biological target: T6, rat α2AR (Rattus norvegicus, UniProt P22909); settings: agonist mode; CHO-K1 cells
T6 sequence (P22909 1-465): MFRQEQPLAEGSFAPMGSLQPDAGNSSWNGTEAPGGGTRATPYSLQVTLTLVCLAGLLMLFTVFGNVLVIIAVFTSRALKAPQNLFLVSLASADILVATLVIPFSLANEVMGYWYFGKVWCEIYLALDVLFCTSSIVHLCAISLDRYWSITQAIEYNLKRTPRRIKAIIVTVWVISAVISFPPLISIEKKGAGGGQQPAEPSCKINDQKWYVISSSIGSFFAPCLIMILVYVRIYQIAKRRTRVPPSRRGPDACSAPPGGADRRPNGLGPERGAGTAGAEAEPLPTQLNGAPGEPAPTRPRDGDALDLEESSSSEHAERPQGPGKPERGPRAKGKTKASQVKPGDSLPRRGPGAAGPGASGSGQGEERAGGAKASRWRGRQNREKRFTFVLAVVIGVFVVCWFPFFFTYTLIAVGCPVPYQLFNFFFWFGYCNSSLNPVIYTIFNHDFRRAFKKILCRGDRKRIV

[9] = biological target: T5, α2AR; remark: listed apart in the source
[10] = biological target: human α2BRs (Homo sapiens, UniProt P18089); settings: 10 μM screen
[11] = biological target: T7, α1AR (Homo sapiens, UniProt P35348)
T7 sequence (P35348 1-466): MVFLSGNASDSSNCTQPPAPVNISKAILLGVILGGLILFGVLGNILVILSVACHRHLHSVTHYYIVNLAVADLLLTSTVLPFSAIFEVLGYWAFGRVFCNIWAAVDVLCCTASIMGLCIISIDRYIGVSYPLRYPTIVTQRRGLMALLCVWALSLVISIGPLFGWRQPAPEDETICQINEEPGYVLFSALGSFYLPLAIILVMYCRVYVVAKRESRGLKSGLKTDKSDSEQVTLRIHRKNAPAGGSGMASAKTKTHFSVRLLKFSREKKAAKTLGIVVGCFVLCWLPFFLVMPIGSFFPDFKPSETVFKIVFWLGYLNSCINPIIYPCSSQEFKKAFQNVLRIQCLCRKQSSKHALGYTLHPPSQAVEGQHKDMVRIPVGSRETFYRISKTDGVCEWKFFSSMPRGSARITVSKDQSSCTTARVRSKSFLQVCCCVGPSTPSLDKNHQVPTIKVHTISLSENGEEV

Chain of human α2BRs (P18089 whole entry): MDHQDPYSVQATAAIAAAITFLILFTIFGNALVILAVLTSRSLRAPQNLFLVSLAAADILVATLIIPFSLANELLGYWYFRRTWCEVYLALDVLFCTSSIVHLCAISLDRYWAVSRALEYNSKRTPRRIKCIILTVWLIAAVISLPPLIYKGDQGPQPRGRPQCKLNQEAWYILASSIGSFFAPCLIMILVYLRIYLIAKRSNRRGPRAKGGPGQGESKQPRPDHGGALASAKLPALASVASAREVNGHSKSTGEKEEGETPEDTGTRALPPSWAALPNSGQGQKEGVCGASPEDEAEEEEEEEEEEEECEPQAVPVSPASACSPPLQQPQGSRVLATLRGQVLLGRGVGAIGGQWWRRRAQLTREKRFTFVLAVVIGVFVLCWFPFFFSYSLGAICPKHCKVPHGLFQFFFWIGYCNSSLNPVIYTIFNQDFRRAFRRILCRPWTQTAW
T1 sequence (P21728 whole entry): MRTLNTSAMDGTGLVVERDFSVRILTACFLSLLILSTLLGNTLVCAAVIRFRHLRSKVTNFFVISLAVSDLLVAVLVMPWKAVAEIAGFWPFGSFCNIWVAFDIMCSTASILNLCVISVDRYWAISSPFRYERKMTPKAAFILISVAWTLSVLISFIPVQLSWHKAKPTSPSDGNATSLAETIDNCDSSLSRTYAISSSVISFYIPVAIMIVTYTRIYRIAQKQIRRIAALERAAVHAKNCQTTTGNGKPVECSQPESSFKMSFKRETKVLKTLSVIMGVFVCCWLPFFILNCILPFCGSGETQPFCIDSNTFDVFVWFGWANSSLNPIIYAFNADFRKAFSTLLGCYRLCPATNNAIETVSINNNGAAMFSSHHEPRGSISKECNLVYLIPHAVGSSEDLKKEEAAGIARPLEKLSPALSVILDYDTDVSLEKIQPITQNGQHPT
T3 sequence (Q12809 whole entry): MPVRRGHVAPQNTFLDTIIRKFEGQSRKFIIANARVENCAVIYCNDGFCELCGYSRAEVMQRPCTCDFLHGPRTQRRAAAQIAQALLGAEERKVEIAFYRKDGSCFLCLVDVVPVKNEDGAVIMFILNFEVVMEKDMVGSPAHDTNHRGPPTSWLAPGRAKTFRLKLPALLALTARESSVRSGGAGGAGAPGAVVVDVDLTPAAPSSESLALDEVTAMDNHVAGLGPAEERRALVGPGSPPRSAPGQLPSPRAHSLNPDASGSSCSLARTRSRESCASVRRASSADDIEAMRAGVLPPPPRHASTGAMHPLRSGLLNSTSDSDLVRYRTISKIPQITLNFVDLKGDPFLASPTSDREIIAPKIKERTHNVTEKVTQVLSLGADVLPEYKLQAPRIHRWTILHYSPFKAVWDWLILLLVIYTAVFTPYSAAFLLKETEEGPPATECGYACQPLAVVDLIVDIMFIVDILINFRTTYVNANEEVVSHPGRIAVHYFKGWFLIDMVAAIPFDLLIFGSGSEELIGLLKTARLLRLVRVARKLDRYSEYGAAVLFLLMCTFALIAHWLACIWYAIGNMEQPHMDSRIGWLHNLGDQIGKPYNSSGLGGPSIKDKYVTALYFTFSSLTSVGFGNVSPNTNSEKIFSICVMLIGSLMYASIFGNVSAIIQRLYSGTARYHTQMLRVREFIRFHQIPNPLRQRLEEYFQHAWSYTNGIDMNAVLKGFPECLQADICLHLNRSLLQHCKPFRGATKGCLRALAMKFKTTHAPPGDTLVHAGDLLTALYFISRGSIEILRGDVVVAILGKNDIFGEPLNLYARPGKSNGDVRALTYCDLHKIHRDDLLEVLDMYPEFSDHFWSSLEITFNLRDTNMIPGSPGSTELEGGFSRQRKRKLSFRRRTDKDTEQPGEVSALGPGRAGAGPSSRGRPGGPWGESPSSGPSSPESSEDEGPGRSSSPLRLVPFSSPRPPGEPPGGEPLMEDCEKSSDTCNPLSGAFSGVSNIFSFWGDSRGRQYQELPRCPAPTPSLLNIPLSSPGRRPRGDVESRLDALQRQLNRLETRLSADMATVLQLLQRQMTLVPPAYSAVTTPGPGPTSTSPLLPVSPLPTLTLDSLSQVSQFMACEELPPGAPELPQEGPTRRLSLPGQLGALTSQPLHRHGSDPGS
T2 sequence (P14416 whole entry): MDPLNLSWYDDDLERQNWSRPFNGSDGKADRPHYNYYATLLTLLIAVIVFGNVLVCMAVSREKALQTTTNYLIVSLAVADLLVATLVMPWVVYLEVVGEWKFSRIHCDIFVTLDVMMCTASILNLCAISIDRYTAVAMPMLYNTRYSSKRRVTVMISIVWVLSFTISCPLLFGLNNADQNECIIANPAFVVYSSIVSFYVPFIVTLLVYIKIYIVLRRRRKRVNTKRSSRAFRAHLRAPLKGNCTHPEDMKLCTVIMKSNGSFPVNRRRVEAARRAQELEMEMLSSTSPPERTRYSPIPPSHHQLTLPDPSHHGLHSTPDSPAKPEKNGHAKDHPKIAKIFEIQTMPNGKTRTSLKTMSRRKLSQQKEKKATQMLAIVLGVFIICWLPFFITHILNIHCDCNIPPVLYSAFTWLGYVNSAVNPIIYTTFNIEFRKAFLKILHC
T4 sequence (P31645 whole entry): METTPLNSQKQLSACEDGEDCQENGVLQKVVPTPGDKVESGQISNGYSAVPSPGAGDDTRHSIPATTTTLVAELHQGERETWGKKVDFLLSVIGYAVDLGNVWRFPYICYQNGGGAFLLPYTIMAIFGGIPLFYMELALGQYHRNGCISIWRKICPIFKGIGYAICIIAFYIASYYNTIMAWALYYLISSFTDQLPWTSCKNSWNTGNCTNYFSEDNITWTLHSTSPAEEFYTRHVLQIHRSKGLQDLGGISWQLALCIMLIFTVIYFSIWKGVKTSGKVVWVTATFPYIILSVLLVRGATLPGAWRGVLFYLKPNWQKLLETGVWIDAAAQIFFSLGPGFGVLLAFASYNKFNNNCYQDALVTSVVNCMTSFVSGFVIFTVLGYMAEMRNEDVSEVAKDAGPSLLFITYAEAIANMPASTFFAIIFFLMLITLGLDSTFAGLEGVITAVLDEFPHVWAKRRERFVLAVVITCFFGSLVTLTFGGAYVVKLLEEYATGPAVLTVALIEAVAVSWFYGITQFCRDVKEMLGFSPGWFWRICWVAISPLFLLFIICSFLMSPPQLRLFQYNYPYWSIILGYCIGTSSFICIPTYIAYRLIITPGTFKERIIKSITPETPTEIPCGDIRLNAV

mitragynine
pERK-stimulating effect in Gαq/11 knockout HEK293 cells ([1]; 1 μM, 5 min, vs CRISPR scrambled): abolished
pERK-stimulating effect with 100 nM atipamezole cotreatment ([1]; HEK293): did not affect
pERK-stimulating effect with 100 nM prazosin cotreatment ([1]; HEK293, CLON and ISO 1 μM, mitragynine 1 μM): abolished
Inhibition of radioligand binding, D1-dopamine receptors [2]: ~73%
Inhibition of radioligand binding, D2-dopamine receptors [3]: ~70%
Affinity at L-type Ca2+ channels [4]: no appreciable affinity
Inhibition of radioligand binding, hERG potassium channels [5]: ~51%
Inhibition of radioligand binding, serotonin transporter [6]: ~51%
Effect on forskolin-stimulated cAMP, human α2AR ([7]; agonist mode, CHO-K1 cells): did not impact forskolin-stimulated cAMP accumulation
Kb ([7]; read-out: Kb, antagonist, cAMP, human α2AR, antagonism of clonidine, Gaddum-Schild analysis of first plateau): 4.17 µM
Effect on forskolin-stimulated cAMP, rat α2AR [8]: did not decrease forskolin-stimulated cAMP accumulation
Kb ([9]; read-out: Kb, antagonist, β-arrestin, antagonist mode vs EC80 (0.01 μM) UK 14,304, Cheng–Prusoff): 5.01 µM
β-arrestin2 recruitment, agonist mode ([9]; α2AR-expressing CHO-K1 cells): did not recruit β-arrestin2
Activation of Gαi/o subtypes coupled to α2BRs [10]: no significant activity
EC50 ([11]; read-out: EC50, α11, α1AR-Gα11): 3.16 µM
EC50 ([11]; read-out: EC50 at α1AR-Gα11 (abstract), partial agonist): ~3 µM
Emax as percent of clonidine's maximum response, α11 ([11]; α1AR-Gα11): 27%
EC50, αq ([11]; α1AR-Gαq): inactive
